Publication PMC10065799, “High-throughput profiling of sequence recognition by tyrosine kinases and SH2 domains using bacterial peptide display” (eLife, 2023)

How the values were obtained:
[1] = target: c-Src kinase domain (Homo sapiens, UniProt P12931); assay: pTyr-Var library bacterial peptide display kinase screen (enrichment scores); assay type: biochemical
[2] = test system: Fyn kinase domain; assay: as above; assay type: biochemical, human
[3] = test system: Hck kinase domain; assay: as above; assay type: biochemical, human; conditions: enrichment score
[4] = target: T1, c-Abl kinase domain (Mus musculus, UniProt P00520); assay: as above; assay type: biochemical
T1 sequence (P00520 242-493 limits assumed): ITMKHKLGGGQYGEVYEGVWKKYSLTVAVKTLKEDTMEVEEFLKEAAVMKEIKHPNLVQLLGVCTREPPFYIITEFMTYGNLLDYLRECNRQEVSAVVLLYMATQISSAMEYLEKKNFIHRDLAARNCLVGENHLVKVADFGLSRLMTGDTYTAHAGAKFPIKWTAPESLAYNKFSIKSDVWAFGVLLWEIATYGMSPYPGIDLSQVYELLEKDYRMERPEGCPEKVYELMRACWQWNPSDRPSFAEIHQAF

[5] = test system: Jak2; assay: as above; assay type: biochemical, human
[6] = test system: AncSZ kinase domain; assay: as above; assay type: biochemical
[7] = test system: Fer kinase domain; assay: as above; assay type: biochemical, mouse
[8] = test system: Fes; assay: as above; assay type: biochemical; conditions: mean of log2 of enrichment over R1-R6
[9] = test system: FGFR1 kinase domain; assay: as above; assay type: biochemical, human
[10] = test system: FGFR3 kinase domain; assay: as above; assay type: biochemical, human
[11] = test system: EPHB1 kinase domain; assay: as above; assay type: biochemical, human
[12] = test system: EPHB2 kinase domain; assay: as above; assay type: biochemical, human
[13] = test system: MERTK kinase domain; assay: as above; assay type: biochemical, human
[14] = test system: 4G10 Platinum pan-phosphotyrosine antibody; assay: Phosphorylated pTyr-Var library selection with biotinylated pan-phosphotyrosine antibody; assay type: binding, mouse; conditions: enrichment score, sheet SH2-vs-peptide
Description: After the desired time of library phosphorylation, kinase activity was quenched with 25 mM EDTA and the cells were washed with PBS containing 0.2% BSA. Kinase-treated cells were then labeled with a 1:1000 dilution of biotinylated 4G10 Platinum anti-phosphotyrosine antibody (Millipore) for an hour on ice and washed with PBS containing 0.1% BSA and 2 mM EDTA (isolation buffer). The cells were finally resuspended in PBS containing 0.1% BSA. The phosphorylated, antibody-labeled cells were then mixed with magnetic beads from Dynabeads FlowComp Flexi kit (Invitrogen), at a ratio of 37.5 μL of washed beads per 50 μL of cell suspension, diluted into 450 μL of isolation buffer. The suspension was rotated at 4 °C for 30 minutes, then 375 μL of isolation buffer was added and the beads were separated from the bulk solution on a magnetic rack. The beads were washed once with 1 mL of isolation buffer, and then the supertantant were removed by aspiration. […] The bead/lysate mixture was centrifuged to pellet the beads and the mixture was stored at -20 °C.

[15] = target: c-Src SH2 domain (Homo sapiens, UniProt P12931); assay: pTyr-Var library SH2 domain screen with SH2-dynabeads (enrichment scores); conditions: sheet c-Src
[16] = test system: SHP2 C-SH2 domain; assay: as above
[17] = test system: Grb2 SH2 domain; assay: as above
[18] = mean of log2 of enrichment over R1-R4
[19] = pTyr-Var library, enrichment score, replicate 1
[20] = pTyr-Var library, enrichment score, replicate 3
[21] = pTyr-Var library, enrichment score, replicate 4
[22] = mean of log2 enrichment of reference peptide, n = 5
[23] = pTyr-Var library, reference peptide enrichment, mean of n = 5
[24] = mean of log2 enrichment of reference peptide, n = 4
[25] = pTyr-Var library, reference peptide enrichment, mean of n = 4

LRVGFYESDVM [A2M_Y708]
c-Src mean of log2(enrichment) [1, 18]: 0.391
c-Src enrich. R1 [1, 19]: 1.08
c-Src enrich. R3 [1, 20]: 1.298
c-Src enrich. R4 [1, 21]: 1.223
Fyn mean of log2(enrichment) [2, 18]: -0.1485
Fyn enrich. R1 [2, 19]: 1.939
Fyn enrich. R3 [2, 20]: 1.639
Fyn enrich. R4 [2, 21]: 0.1487
Hck enrich. R1 ([3]; replicate 1): 1.102
Hck enrich. R3 ([3]; replicate 3): 1.0148
Hck enrich. R4 ([3]; replicate 4): 0.9933
c-Abl mean of log2(enrichment) [4, 18]: 0.8901
c-Abl enrich. R1 [4, 19]: 1.339
c-Abl enrich. R3 [4, 20]: 1.7654
c-Abl enrich. R4 [4, 21]: 2.061
Jak2 mean of log2(enrichment) ([5]; mean of log2 of enrichment over R1-R3): 0.9825
Jak2 enrichment (mean) ([5]; pTyr-Var library, enrichment score, mean of replicates R1-R3): 2.035
Jak2 enrich. R1 [5, 19]: 2.166
Jak2 enrich. R3 [5, 20]: 1.407
AncSZ mean of log2(enrichment) ([6]; mean of log2 of enrichment over R1-R5): 1.515
AncSZ enrich. R3 [6, 20]: 3.27
AncSZ enrich. R4 [6, 21]: 3.639
AncSZ enrich. R5 ([6]; pTyr-Var library, enrichment score, replicate 5): 3.918
Fer mean of log2(enrichment) [7, 18]: 0.6409
Fer enrich. R1 [7, 19]: 1.74
Fer enrich. R3 [7, 20]: 2.063
Fer enrich. R4 [7, 21]: 1.716
Fes mean of log2(enrichment) [8]: 1.487
mean of log2(reference) [9, 22]: 0.2144
ref. mean [9, 23]: 1.392
mean of log2(reference) [10, 22]: 1.27
ref. mean [10, 23]: 2.887
mean of log2(reference) [11, 24]: 0.89
EPHB1 enrichment (mean) ([11]; pTyr-Var library, enrichment score, mean of replicates): 1.865
ref. mean [11, 25]: 1.865
mean of log2(reference) [12, 24]: -0.3867
ref. mean [12, 25]: 0.9336
mean of log2(reference) [13, 24]: 1.359
ref. mean [13, 25]: 2.61
4G10 (mean) [14]: 1.415
mean of log2(reference) ([15]; mean of log2 enrichment of reference peptide, R1-R3): 2.001
ref. mean ([15]; reference peptide, mean of R1-R3): 4.137
mean of log2(reference) ([16]; SHP2-C SH2, mean of log2 enrichment of reference, R1-R3): 0.01184
ref. mean ([16]; reference peptide enrichment score, SHP2-C SH2, mean of R1-R3): 1.018
mean of log2(reference) ([17]; Grb2 SH2, mean of log2 enrichment of reference, R1-R3): -0.1031
ref. mean ([17]; reference peptide enrichment score, Grb2 SH2, mean of R1-R3): 0.9341
